Laboratory results: patent US20150111896A1, “HEMATOPOIETIC PROTECTION AGAINST CHEMOTHERAPEUTIC COMPOUNDS USING SELECTIVE CYCLIN-DEPENDENT KINASE 4/6 INHIBITORS” (The University of North Carolina at Chapel Hill, priority 2008, published 2015)

Assays:
[1] = system: human patients with malignancies; settings: serially treated; cited from earlier work
[2] = system: mice exposed to chemotherapeutic agents; assay: Myelosuppression assay: weekly complete blood counts; assay type: in vivo; settings: for protection of blood cell counts (platelets, hemoglobin, lymphocytes, granulocytes) from doxorubicin: 150 mg/kg oral gavage 1 hour before DOX 10 mg/kg i.p., repeated after 7 days, blood at fourteen days; for protection of blood cell counts (platelets, hemoglobin, lymphocytes, granulocytes) from carboplatin: 150 mg/kg oral gavage one hour before Carbo 100 mg/kg i.p., blood at seven day intervals
Description: PD0332991: In the carboplatin experiments, mice were treated with a single dose of PD0332991 150 mg/kg oral gavage or vehicle control followed by carboplatin 100 mg/kg IP injection. In the doxorubicin experiments, mice were treated with a PD0332991 150 mg/kg by oral gavage or vehicle control one hour before doxorubicin 10 mg/kg by IP injection on day 0 and then repeated on day 7.
2BrIC: Mice were treated with a single dose of carboplatin 100 mg/kg by IP injection and two doses of 2BrIC 150mg/kg oral gavage or vehicle control. Mice were pretreated with 2BrIC two hours prior to carboplatin administration and then readministered a second dose of 2BrIC at the time of the carboplatin injection.
Baseline complete blood count (CBC) analysis were performed on a subset of mice prior to drug administration. Following drug administration (chemotherapy+/−indicated CDK4/6 inhibitor or control), mice were monitored weekly for the presence of myelosuppression by CBC analysis. CBC analysis was performed using BD Microtainer tubes with K2E (K2EDTA), 40 μL of blood was collected by tail vein nick. Blood was analyzed using a HESKA CBC-Diff Veterinary Hematology System. CBC analysis included measurement of white blood cells, lymphocytes, granulocytes, monocytes, hematocrit, red blood cells, hemoglobin, platelets, and other common hematological parameters.

[3] = system: human RB-null melanoma cells (A2058); assay: Cell proliferation assay (WST-1 or CellTiter-Glo) after chemotherapeutic; settings: A2058 (CDK4/6-independent); pretreatment prior to carboplatin, etoposide or doxorubicin
Description: (§6) In some embodiments, cell viability is assessed by performing a assay using 2-(4-iodophenyl)-3-(4-nitrophenyl)-5-(2,4-disulfophenyl)-2H-tetrazolium monosodium salt (WST-1), such as described further hereinbelow. In the WST-1 assay, WST-1 is cleaved by a mitochondrial reductase present in viable cells to form a colored product (i.e., formazan) that can be detected by measuring absorbance at a particular wavelength (e.g., 420-480 nm). […] The CellTiter-Glo® assay (CTG assay; Promega, Madison, Wis., United States of America) measures cell viability by measuring ATP concentration in cell lysate.
(§7) Cell lines: Telomerized human diploid fibroblast (tHDF) cells (HS68) were cultured in Dulbecco's Modified Eagle Medium (DMEM) +10% fetal bovine serum (FBS) with any additional compounds. The same conditions were used for A2058 and WM2664, human melanoma cell lines with known RB-pathway mutations: A2058 is RB-null, whereas WM2664 lacks INK4a/ARF. Thus, A2058 cells are CDK4/6-independent, while WM2664 cells are CDK4/6-dependent. Cells were cultured in DMEM+10% FBS.
(§8) Cell proliferation assays: Cell proliferation assays were performed by seeding 1×10^3 cells per well in a 96-well tissue culture plate in 100 μL of growth medium. Cells were treated as indicated with compound from Table 1 and doxorubicin, etoposide or carboplatin. Following treatment, cells were allowed to recover for 7 days in normal growth medium. At the end of the recovery period, cell number was quantified using the VVST-1 cell proliferation assay (TaKaRa Bio USA, Madison, Wis., United States of America) or the CellTiter-Glo® assay (CTG; Promega, Madison, Wis., United States of America). Data is presented as absorbance at 450 nm for the WST assays or Relative Light Units (RLU) for the CTG assays.

[4] = system: human melanoma cells lacking INK4a/ARF (WM2664); assay: as above; settings: WM2664 (CDK4/6-dependent); pretreatment prior to carboplatin, etoposide or doxorubicin
Description: as §6, §7, §8

[5] = system: human melanoma cells lacking INK4a/ARF (WM2664); assay: Cell cycle analysis (BrdU and propidium iodide, flow cytometry); assay type: cell-based; settings: WM2664 (CDK4/6-dependent), 24 hours treatment
Description: (§1) Cells were cultured in DMEM+10% FBS.
(§2) Cell cycle analysis: Cell cycle analysis was performed using BrdU and propidium iodide (both from BD Biosciences Pharmigen, San Jose, Calif., United States of America) following the manufacturer's protocol. Cells were treated for 24 hours with a test compound at a desired dose prior to 15 minutes BrdU pulse, cell harvesting, fixation, staining, and analysis by flow cytometry.
(§3) Histograms of dose-response curves of PD332991 and 2BrIC in HS68, WM2664 and A2058 cells were analyzed using Mod-Fit™ software from Verity Software House (Topsham, Me., United States of America).

[6] = system: telomerized human diploid fibroblast (tHDF) cells (HS68); assay: as above; assay type: cell-based; settings: HS68 (CDK4/6-dependent), 24 hours treatment
Description: as §1, §2, §3

[7] = system: telomerized human diploid fibroblast (tHDF) cells (HS68); assay: Cell proliferation assay (WST-1 or CellTiter-Glo) after chemotherapeutic; settings: HS68 (CDK4/6-dependent); pretreatment prior to carboplatin, etoposide or doxorubicin
Description: as §6, §7, §8

[8] = system: human RB-null melanoma cells (A2058); assay: γH2AX assay (DNA damage, flow cytometry); assay type: cell-based; settings: 16 hours pretreatment, then 8 hours Carbo, Etop or Dox
Description: (§4) Reduction in DNA damage effected by the test compound or maintenance of cell viability effected by the test compound in cells treated with cytotoxic compounds can be assessed in any suitable manner. For example, DNA damage in cell populations can be assessed by performing a gamma-H2AX assay as described further herein below. Mammalian cells respond to agents that introduce DNA double-stranded breaks with the immediate and substantial phosphorylation of histone H2AX. Thus, detection of the phosphorylated H2AX, termed gamma-H2AX (γH2AX), using commercially available antibodies, can serve as a measure of DNA damage in cells.
as §1
(§5) γH2AX assay: For γH2AX assay, cells were treated with a dose response of PD332991 or 2BrIC for 24 hours. Cells were fixed, permeabilized, and stained with anti-γH2AX antibody as per γH2AX Flow Kit (Millipore, Billerica, Mass., United States of America). γH2AX levels were assessed by flow cytometry.

[9] = system: human melanoma cells lacking INK4a/ARF (WM2664); assay: γH2AX assay (DNA damage, flow cytometry); assay type: cell-based; settings: 16 hours pretreatment
Description: as §4, §1, §5

[10] = system: telomerized human diploid fibroblast (tHDF) cells (HS68); assay: γH2AX assay (DNA damage, flow cytometry); assay type: cell-based; settings: 16 hours pretreatment, then 8 hours Carbo, Etop or Dox
Description: as §4, §1, §5

[11] = system: hematopoietic stem and progenitor cells (HSPC); assay: In vivo pharmacodynamic assay (BrdU incorporation, Ki67) in bone marrow; design: species or system mice
Description: PD0332991: For HSPC proliferation experiments, mice received daily oral gavage with PD0332991 150 mg/kg for 2 days with 1 mg BrdU intraperitoneal injection (i.p.) every 6 hours for 24 hours prior to sacrifice.
2BrIC: For HSPC proliferation experiments, mice were treated with two doses of 2-bromo-12,13-dihydro-5H-indolo[2,3-a]pyrrolo[3,4-c]carbazole-5,7(6H)-dione (2BrIC) 300 mg/kg oral gavage or vehicle control. 2BrIC was solubilized for oral gavage using formulation #6 from the Hot Rod formulation kit (Pharmatek, Inc., San Diego, Calif., United States of America). 2BrIC was administered 2 hours prior to BrdU administration and readministered at the time of the BrdU 1 mg i.p. injection. After BrdU+/−2BrIC treatment for the indicated times, the mice were sacrificed and bone marrow harvested for immunophenotyping, and BrdU analysis.
Bone marrow (BM) was harvested from femurs of mice, pooled, and centrifuged to purify bone marrow mononuclear cells (BM-MNCs). Cells were then incubated for 5 minutes in ACK buffer to lyse red blood cells. All antibodies were from BD Pharmingen (San Jose, Calif., United States of America) unless otherwise indicated. Purified BM-MNCs were incubated with mouse lineage mixture biotin conjugated antibody, followed by streptavidin-FITC. Cells were then stained with Sca-1-PE-Cy7 and c-kit-APC-alexa750 antibodies. Cell viability was assessed using LIVE/DEAD Aqua Dead Cell Stain Kit (Invitrogen Corporation, Carlsbad, Calif., United States of America). For BrdU incorporation assay, the cells were fixed, permeablized, and stained with an APC BrdU Flow Kit according to the manufacturer's instruction. In all experiments, PE-Cy7, FITC, APC-alexa750, and the Aqua Dead cell stain isotype controls were included as appropriate. Flow cytometric analysis was performed using a CyAn ADP (Dako, Glostrup, Denmark). For each sample, a minimum of 500,000 cells was analyzed and the data were analyzed using FlowJo software (Tree Star, Ashland, Oreg., United States of America).

[12] = system: tumor bearing mice; settings: serially treated; cited from earlier work

CC(=O)c1c(C)c2cnc(Nc3ccc(N4CCNCC4)cn3)nc2n(C2CCCC2)c1=O [PD0332991, 6-acetyl-8-cyclopentyl-5-methyl-2-(5-piperazin-1-yl-pyridin-2-ylamino)-8H-pyrido-[2,3-d]-pyrimidin-7-one]
erythroid, platelet and myeloid (monocyte+granulocyte) lineages upon administration [1]: decrease
protection of blood cell counts (platelets, hemoglobin, lymphocytes, granulocytes) from doxorubicin [2]: provides quadrilineage protection
protection of blood cell counts (platelets, hemoglobin, lymphocytes, granulocytes) from doxorubicin ([2]; listed as PD332991): protected
protection of blood cell counts (platelets, hemoglobin, lymphocytes, granulocytes) from carboplatin [2]: provides quadrilineage protection
protection of blood cell counts (platelets, hemoglobin, lymphocytes, granulocytes) from carboplatin ([2]; listed as PD332991): protected
protection from chemotherapy-induced cytotoxicity (cell proliferation assays) [3]: not
protection from chemotherapy-induced cytotoxicity (cell proliferation assays) [4]: significant protection
cell cycle effect [5]: strong, clean and reversible G1-arrest
cell cycle effect [6]: strong, clean and reversible G1-arrest
protection from chemotherapy-induced cytotoxicity (cell proliferation assays) [7]: significant protection
protection from doxorubicin-, carboplatin- or etoposide-induced DNA damage (gamma-H2AX) [8]: inability
protection from doxorubicin-, carboplatin- or etoposide-induced DNA damage (gamma-H2AX) ([9]; then 8 hours Carbo, Etop or Dox): attenuated γH2AX staining
protection from carboplatin-induced DNA damage (gamma-H2AX positive cells) ([9]; then 8 hours carboplatin): ability
protection from doxorubicin-induced DNA damage (gamma-H2AX positive cells) ([9]; then 8 hours doxorubicin): ability
protection from etoposide-induced DNA damage (gamma-H2AX positive cells) ([9]; then 8 hours etoposide): ability
protection from doxorubicin-, carboplatin- or etoposide-induced DNA damage (gamma-H2AX) [10]: attenuated γH2AX staining
protection from doxorubicin-, carboplatin- or etoposide-induced DNA damage (gamma-H2AX) ([10]; listed as PD 0332991): ability
proliferation of granulocyte-monocyte progenitors (GMP) and megakaryocyte-erythroid progenitors (MEP) ([11]; 150 mg/kg daily oral gavage, 48 hours): weaker effects
proliferation in early HSPC populations (BrdU incorporation and Ki67 expression) ([11]; 48 hours treatment, 24 hour exposure to BrdU): clearly reduces proliferation
frequency of HSC doubly positive for expression of Ki67 and BrdU ([11]; HSC (Lin−Kit+Sca1+CD48−CD150+), 150 mg/kg daily oral gavage, 48 hours, C57BII/6 mice): significantly decreased
proliferation of oligopotent progenitors (Ki67, BrdU) ([11]; Lin−Kit+Sca1−, 150 mg/kg daily oral gavage, 48 hours): modest inhibition of proliferation
proliferation of multipotent progenitor cell compartment (Ki67, BrdU) ([11]; MPP (Lin−Kit+Sca1+CD48−CD150−), 150 mg/kg daily oral gavage, 48 hours): more pronounced inhibition of proliferation
proliferation of Lin−Kit−Sca1− and Lin+ cells ([11]; more fully differentiated cells, 150 mg/kg daily oral gavage, 48 hours): no change in proliferation
erythroid, platelet and myeloid (monocyte+granulocyte) lineages upon administration [12]: decrease
